In ChEMBL document CHEMBL1201862, “PubChem BioAssay data set” (2004):
Calls of active or inactive are those of the source.

Columns and labels:
[1] = target: Glyceraldehyde-3-phosphate dehydrogenase (Homo sapiens, UniProt P04406)
[2] = target: T1, Bcl-2-related protein A1 (Mus musculus, UniProt Q07440); assay: small-molecule antagonists of Bfl-1/BH3 interaction – biochemical, TR-FRET, mouse Bfl-1, confirmation (AID 621);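 further: TR-FRET binding of GST-Bfl-1 to FITC-labelled Bid peptide via terbium antibody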
T1 sequence (Q07440 whole entry): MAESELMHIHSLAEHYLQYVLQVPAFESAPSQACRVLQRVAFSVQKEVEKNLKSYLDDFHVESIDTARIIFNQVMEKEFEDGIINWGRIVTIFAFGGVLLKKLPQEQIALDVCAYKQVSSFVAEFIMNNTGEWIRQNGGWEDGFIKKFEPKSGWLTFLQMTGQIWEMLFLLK

[3] = target: T1, Bcl-2-related protein A1; assay: Bfl-1 binding inhibitors, SAR follow-up, biochemical, fluorescence polarization (AID 1070)
[4] = viability loss in Vero cells – cytotoxicity control for Vif-APOBEC3G degradation inhibitor project, dose response (AID 1117358); format: functional; settings: Vero
[5] = target: T2, Protein Tat (Human immunodeficiency virus type 1 group M subtype B (isolate HXB2)(HIV-1), UniProt P04608); format: functional;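 further: tat binding to TAR RNA read out by fluorescence polarization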
T2 sequence (P04608 whole entry): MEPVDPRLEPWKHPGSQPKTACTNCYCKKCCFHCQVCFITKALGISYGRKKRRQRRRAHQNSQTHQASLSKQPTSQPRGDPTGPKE

[6] = antiviral protection against BTV-induced cell death – arbovirus, BSR cells, confirmation (AID 1250); format: functional;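 further: protection from viral cytopathic effect measured as cell viability by ATP luminescence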
[7] = target: T1, Bcl-2-related protein A1; format: functional
[8] = target: T3, Ubiquitin-conjugating enzyme E2 N (Homo sapiens, UniProt P61088); format: functional
T3 sequence (P61088 whole entry): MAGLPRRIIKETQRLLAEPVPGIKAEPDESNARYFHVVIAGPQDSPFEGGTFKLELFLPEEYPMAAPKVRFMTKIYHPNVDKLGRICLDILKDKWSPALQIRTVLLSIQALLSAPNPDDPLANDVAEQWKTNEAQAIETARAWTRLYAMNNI

[9] = target: T3, Ubiquitin-conjugating enzyme E2 N; format: functional; remark: listed apart in the source
[10] = Luminescence Cell-Based Dose Confirmation to Identify Activators of 5'UTR Stem-Loop Driven Alpha-Synuclein mRNA Translation in H4 Neuroglioblastoma Cells. [Related pubchem assays: 1829 (Project Summary), 1814 (Primary HTS)]; format: functional
[11] = system: H4; assay: Luminescence Cell-Based Dose Response HTS to Identify Activators of 5'UTR Stem-Loop Driven Prion Protein mRNA Translation in H4 Neuroglioblastoma Cells. [Related pubchem assays: 1829 (Project Summary), 1814 (Primary HTS)]; format: functional; settings: Homo sapiens
[12] = Luminescence Cell-Based Dose Confirmation HTS to Identify Activators of 5'UTR Stem-Loop Driven Alpha-Synuclein mRNA Translation in H4 Neuroglioblastoma Cells. [Related pubchem assays: 1829 (Project Summary), 1814 (Primary HTS)]; format: functional
[13] = Luminescence Cell-Based Dose Response to Identify Activators of 5'UTR Stem-Loop Driven Prion Protein mRNA Translation in H4-C Neuroglioblastoma Cells. [Related pubchem assays: 1829 (Project Summary), 1814 (Primary HTS)]; format: functional
[14] = Luminescence Cell-Based Dose Response HTS to Identify Activators of Luciferase Translation or Activity in H4 […] Cells. [Related pubchem assays: 1829 (Project Summary), 1814 (Primary HTS)]; format: functional
[15] = Luminescence Cell-Based Dose Response to Identify Activators of Luciferase Translation or Activity in H4-C Neuroglioblastoma Cells. [Related pubchem assays: 1829 (Project Summary), 1814 (Primary HTS)]; format: functional
[16] = system: H9c2; assay: cells; format: functional, cell-based; settings: Rattus norvegicus, H9c2, Myocardium;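 further: confirmatory concentration-response retest of ultra-high-throughput screening hits for modulation of myocardial damage; cell death induced by hydrogen peroxide oxidative stress; compound pretreatment for 60 min then peroxide exposure for 2 h; potency is for protecting the cells against peroxide damage rather than for killing them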
[17] = microbe, parasite or virus in culture; format: functional; settings: Mycobacterium tuberculosis
[18] = reduced cellular PGC1a acetyl-lysine signal – cell-based, cherry-picked samples, dose response (AID 720514); format: functional;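 further: potency may reflect raised or lowered acetylation signal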
[19] = target: T4, Replicative DNA helicase DnaB (Mycobacterium tuberculosis, UniProt P9WMR3); assay: DnaB intein splicing inhibitors, dose response, biochemical, cell-free fluorescence (AID 449749); format: functional
T4 sequence (P9WMR3 whole entry): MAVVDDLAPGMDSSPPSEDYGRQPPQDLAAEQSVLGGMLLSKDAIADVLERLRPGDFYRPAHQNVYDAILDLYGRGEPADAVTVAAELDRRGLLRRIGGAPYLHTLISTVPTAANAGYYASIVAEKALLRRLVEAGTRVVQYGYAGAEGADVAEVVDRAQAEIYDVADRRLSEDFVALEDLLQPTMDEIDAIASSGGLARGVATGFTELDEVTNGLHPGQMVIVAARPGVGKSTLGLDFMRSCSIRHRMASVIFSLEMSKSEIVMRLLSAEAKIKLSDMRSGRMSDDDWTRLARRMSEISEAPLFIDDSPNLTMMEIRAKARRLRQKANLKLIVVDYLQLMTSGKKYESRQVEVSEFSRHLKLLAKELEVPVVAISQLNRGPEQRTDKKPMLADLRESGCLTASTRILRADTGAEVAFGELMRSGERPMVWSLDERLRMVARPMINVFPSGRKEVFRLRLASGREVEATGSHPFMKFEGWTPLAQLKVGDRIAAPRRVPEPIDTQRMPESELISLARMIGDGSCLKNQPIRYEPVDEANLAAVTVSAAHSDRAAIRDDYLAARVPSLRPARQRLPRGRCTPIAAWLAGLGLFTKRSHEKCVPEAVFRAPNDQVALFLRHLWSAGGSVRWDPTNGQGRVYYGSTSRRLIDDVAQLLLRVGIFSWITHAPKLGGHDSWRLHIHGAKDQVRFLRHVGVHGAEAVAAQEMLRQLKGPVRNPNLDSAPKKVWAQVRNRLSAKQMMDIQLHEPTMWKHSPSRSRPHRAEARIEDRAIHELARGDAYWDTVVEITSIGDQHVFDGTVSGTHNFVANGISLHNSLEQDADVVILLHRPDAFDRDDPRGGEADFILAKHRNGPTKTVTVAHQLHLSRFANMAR

[20] = target: T5, Protein RecA (Mycobacterium tuberculosis, UniProt P9WHJ3); assay: Fluorescence Cell-Free Homogeneous Dose Retest to Identify Inhibitors of RecA-Intein Splicing Activity. [Related pubchem assays (depositor defined):AID2097, AID2223, AID489010, AID492950]; format: functional
T5 sequence (P9WHJ3 whole entry): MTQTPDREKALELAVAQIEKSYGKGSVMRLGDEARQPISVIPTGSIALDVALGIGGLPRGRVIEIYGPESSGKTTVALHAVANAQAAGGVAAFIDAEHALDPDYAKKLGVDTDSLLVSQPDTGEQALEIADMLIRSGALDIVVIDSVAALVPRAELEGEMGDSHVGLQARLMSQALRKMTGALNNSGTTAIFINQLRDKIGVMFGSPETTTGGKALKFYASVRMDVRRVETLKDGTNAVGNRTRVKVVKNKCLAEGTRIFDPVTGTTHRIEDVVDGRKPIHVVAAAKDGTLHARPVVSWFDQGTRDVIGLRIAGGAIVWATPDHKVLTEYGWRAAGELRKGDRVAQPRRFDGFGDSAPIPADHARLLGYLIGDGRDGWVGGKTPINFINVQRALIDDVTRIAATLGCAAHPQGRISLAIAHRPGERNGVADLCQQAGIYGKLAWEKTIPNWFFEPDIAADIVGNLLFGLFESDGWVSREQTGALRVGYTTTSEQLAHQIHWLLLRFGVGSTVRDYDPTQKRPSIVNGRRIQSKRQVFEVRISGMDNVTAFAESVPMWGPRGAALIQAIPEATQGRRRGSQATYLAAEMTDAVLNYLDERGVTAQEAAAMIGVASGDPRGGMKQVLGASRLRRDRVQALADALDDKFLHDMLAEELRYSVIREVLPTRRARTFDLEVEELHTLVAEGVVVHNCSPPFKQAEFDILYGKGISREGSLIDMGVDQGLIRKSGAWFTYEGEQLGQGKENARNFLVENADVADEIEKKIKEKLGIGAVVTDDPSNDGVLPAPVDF

[21] = target: T6, Heat shock factor protein 1 (Mus musculus, UniProt P38532); assay: enhancement of HSF1-driven luciferase signal – cell-based, NIH3T3, luminescence, dose retest, confirmation (AID 435004); format: functional;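 further: stress induced by proteasome inhibitor MG132 added 30 min after compound; luciferase reporter driven by HSF1 response element in NIH3T3 cells; actives raise luminescence as potentiators of the MG132 stress response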
T6 sequence (P38532 whole entry): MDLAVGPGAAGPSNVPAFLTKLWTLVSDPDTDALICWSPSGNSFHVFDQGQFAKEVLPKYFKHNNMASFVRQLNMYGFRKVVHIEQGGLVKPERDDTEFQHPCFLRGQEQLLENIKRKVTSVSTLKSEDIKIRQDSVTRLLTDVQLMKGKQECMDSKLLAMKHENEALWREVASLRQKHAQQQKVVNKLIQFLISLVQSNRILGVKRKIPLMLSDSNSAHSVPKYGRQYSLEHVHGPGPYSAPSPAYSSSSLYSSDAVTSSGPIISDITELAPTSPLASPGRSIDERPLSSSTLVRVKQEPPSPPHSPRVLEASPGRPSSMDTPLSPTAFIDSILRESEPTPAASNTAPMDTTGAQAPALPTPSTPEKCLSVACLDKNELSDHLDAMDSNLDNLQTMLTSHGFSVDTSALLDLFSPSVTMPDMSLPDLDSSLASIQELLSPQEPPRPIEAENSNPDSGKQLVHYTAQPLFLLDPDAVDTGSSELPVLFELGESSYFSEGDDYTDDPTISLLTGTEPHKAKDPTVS

[22] = viability loss in THP-1 monocytes – THP-1 cells, cytotoxicity control for Vif-APOBEC3G degradation inhibitor project, dose response (AID 1117359); format: functional; settings: THP-1
[23] = P. falciparum Dd2 growth inhibitors, dose response, SYBR Green, cherry-picked samples (AID 1159567); format: functional, cell-based
[24] = growth inhibition of yeast DHODH-expressing 3D7 parasites – SYBR Green, dry powder samples, dose response (AID 1159570); format: functional, cell-based;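 further: parasite growth measured after 72 hours of compound exposure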
[25] = growth inhibition of PfATP4-mutant resistant parasites – NITD609-resistant line, SYBR Green, dry powder, dose response (AID 1159571); format: functional, cell-based;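 further: parasites synchronized at ring stage by sorbitol before testing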
[26] = toxicity to human HepG2 hepatoma cells – cell-based, plate reader, dry powder samples, cytotoxicity control, dose response (AID 1159569); format: functional;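 further: inhibitor potency with signal falling toward the positive control level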
[27] = Dd2 malaria parasite growth inhibition potency – SYBR Green, dry powder samples, dose response (AID 1159566); format: functional, cell-based;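 further: potency for growth inhibition with lower SYBR green DNA signal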

Glyceraldehyde-3-phosphate dehydrogenase, sequence (P04406 whole entry): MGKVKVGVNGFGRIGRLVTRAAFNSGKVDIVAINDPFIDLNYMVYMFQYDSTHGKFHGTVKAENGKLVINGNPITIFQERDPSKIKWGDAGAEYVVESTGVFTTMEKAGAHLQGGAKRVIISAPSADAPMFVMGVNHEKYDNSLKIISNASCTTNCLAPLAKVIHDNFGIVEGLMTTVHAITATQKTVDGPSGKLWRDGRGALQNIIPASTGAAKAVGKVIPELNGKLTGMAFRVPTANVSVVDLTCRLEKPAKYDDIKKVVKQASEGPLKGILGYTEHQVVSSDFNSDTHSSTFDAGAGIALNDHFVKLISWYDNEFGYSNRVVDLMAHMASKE

## Cc1ccc(Cl)c(N2C(=O)C(Cl)=C(N3CCN(C)CC3)C2=O)c1Cl
[1]
  IC50: > 100 µM (not active)
[2]
  IC50: 11.1 µM (active)
[3]
  IC50: 23.9 µM (active)

## O=C(NCc1ccccc1)/C(=C/c1ccc(OC(F)F)cc1)c1ccccc1
[4]
  CC50: 34.5 µM (active)

## CCC(NC(=O)Nc1ccc(O)cc1)(C(F)(F)F)C(F)(F)F
[5]
  IC50: 40.2 µM (inconclusive)

## O=C(Nc1ccccc1C(=O)O)c1ccc(NC(=O)c2ccc(Br)o2)cc1
[6]
  IC50: 35.4 µM (active)

## COc1cccc(N2C(=O)C(Cl)=C(N3CCN(CCOCCO)CC3)C2=O)c1
[1]
  IC50: > 100 µM (not active)
[2]
  IC50: 9.11 µM (active)
[3]
  IC50: 8.85 µM (active)

## CS(=O)(=O)N(CC(O)Cn1c2ccccc2c2ccccc21)c1ccccc1 (configuration not stated)
[6]
  IC50: 33 µM (active)

## Cc1cccc(C)c1NC(=O)Cn1c(=O)n(CCCC(=O)NC2CCN(Cc3ccccc3)CC2)c(=O)c2ccccc21
[7]
  IC50: > 20 µM (inactive)
[8]
  IC50: 4.06 µM (active)
[9]
  IC50: 6.42 µM (active)

## Cc1ccc(Nc2[nH]cnc3ncnc2-3)cc1Cl
[10]
  EC50: 0.604 µM (active)
[11]
  EC50: > 120 µM (not active)
[12]
  EC50: < 0.1 µM (active)
[13]
  EC50: 0.745 µM (active)
[14]
  EC50: 0.268 µM (inconclusive)
[15]
  EC50: > 12 µM (not active)

## c1ccc(CN2CCN(CCCNc3ccc4nnc(-c5ccccc5)n4n3)CC2)cc1
[5]
  IC50: > 100 µM (active)
[16]
  IC50: > 79 µM (inactive)
[17]
  CC50: 35.6 µM (active)

## O=S(=O)(c1ccccc1)c1ncc(C(F)(F)F)cc1Cl
[18]
  AC50: 11 µM (active)
[19]
  AC50: 18.4 µM (active)
[20]
  EC50: 3.16 µM (active)
[21]
  EC50: 15.9 µM (active)

## CCCCOc1[nH]cnc2c3cc(OC)ccc3nc1-2
[10]
  EC50: 0.239 µM (active)
[11]
  EC50: < 0.1 µM (active)
[13]
  EC50: 0.274 µM (active)
[15]
  EC50: 0.403 µM (active)

## Cc1ccc(-c2cc(-c3ccc4c(c3)OCO4)c(C#N)c(N)n2)o1
[5]
  IC50: 30.5 µM (inconclusive)
[22]
  CC50: 24.7 µM (active)

## Cc1ccc(-c2cc(C(F)(F)F)c(C#N)c(O)n2)cc1
[6]
  IC50: 32.6 µM (active)

## CCOC(=O)c1s/c(=N\C(=O)c2ccc(C)c(C)c2)n(C)c1C
[10]
  EC50: 0.718 µM (active)
[13]
  EC50: 0.543 µM (active)
[14]
  EC50: < 0.1 µM (active)
[15]
  EC50: 0.601 µM (active)

## COc1ccc2c3c([nH]c2c1)[C@H](CO)N(Cc1ccncc1)CC31CN(Cc2ccc(-c3ccccn3)cc2)C1
[23]
  AC50: 2.36 µM (active)
[24]
  AC50: 3.42 µM (active)
[25]
  AC50: 2.8 µM (active)
[26]
  AC50: 43.3 µM (active)
[27]
  AC50: 2.97 µM (active)

## COc1ccc2c3c(n(C)c2c1)[C@H](CO)N(CC1CC1)CC31CN(C(=O)c2ccc3c(c2)OCO3)C1
[23]
  AC50: 1.85 µM (active)
[24]
  AC50: 1.24 µM (active)
[25]
  AC50: 1.28 µM (active)
[26]
  AC50: > 100 µM (inactive)
[27]
  AC50: 1.26 µM (active)
